From patent publication US4322546A, “15-Deoxy-16-hydroxy-16-allenyl prostane derivatives of the E and F series” (American Cyanamid Company, priority 1980, dated 1982)

Assays:
Format in all cases: in vivo, Guinea-Pigs
[1] = test system: bronchospasms elicited by intravenous injections of serotonin; experiment: bronchodilator activity, Konzett procedure, against serotonin-induced bronchospasm; settings: Cavia porcellus; three logarithmic cumulative intravenous doses; spasmogen serotonin i.v.
Method: (§1) The bronchodilator activity for representative compounds of this invention was determined in Guinea-Pigs against bronchospasms elicited by intravenous injections of serotonin, histamine, and acetylcholine, by the Konzett procedure, the details of which are discussed by J. Lulling, P. Lievens, F. El Sayed and J. Prignot, Arzeimittel-Forschung 18, 995 (1968).
(§2) In the table which follows, bronchodilator activity for representative compounds of the invention against spasmogenic agents serotonin, histamine, and acetylcholine is expressed as an ED50 determined from the results obtained with three logarithmic cumulative intravenous doses.

[2] = test system: bronchospasms elicited by intravenous injections of histamine; experiment: bronchodilator activity, Konzett procedure, against histamine-induced bronchospasm; settings: Cavia porcellus; three logarithmic cumulative intravenous doses; spasmogen histamine i.v.
Method: as §1, §2

[3] = test system: bronchospasms elicited by intravenous injections of acetylcholine; experiment: bronchodilator activity, Konzett procedure, against acetylcholine-induced bronchospasm; settings: Cavia porcellus; three logarithmic cumulative intravenous doses; spasmogen acetylcholine i.v.
Method: as §1, §2

| SMILES | ED50 [1] [µg/kg] | ED50 [2] [µg/kg] | ED50 [3] [µg/kg] |
| --- | --- | --- | --- |
| C=C=CC(O)(C/C=C/[C@H]1[C@H](O)CC(=O)[C@@H]1CCCCCCC(=O)O)CCCC (relative stereo) [dl 15-deoxy-16-hydroxy-16-allenyl-PGE1, dl-11α,16-dihydroxy-9-oxo-16-allenyl-13-trans prostenoic acid] | 1.05 | 1 | 1.2 |
| C=C=CC(O)(C/C=C/[C@H]1[C@H](O)CC(=O)[C@@H]1C/C=C\CCCC(=O)O)CCCC (relative stereo) [dl 15-deoxy-16-hydroxy-16-allenyl-PGE2, dl-11α,16-dihydroxy-9-oxo-16-allenyl-5-cis-13-trans prostadienoic acid] | 1.4 | 1 | 1.2 |
